# What was measured:
# [1] = test system: MCF-7 (human breast cancer); test: Sulforhodamine B viability assay, MCF-7; assay type: cell-based; design: key: absorbance (optical density) at 570 nm, second wavelength subtracted
# From the text: (§1) Three different viability assays were chosen to complement each other and yielded results dependent on concentration and cell line: the Methyl Tetrazolium dye assay, the Sulforhodamine B fluorescent dye assay, and the Crystal Violet dye assay.
# (§2) The Sulforhodamine B and Crystal Violet assays provide information about protein and were used to complement the Methyl-Tetrazolium dye assay. […] It is used for the quantification of cellular proteins of cultured cells. The assay using Crystal Violet, a dye that binds electrostatically to proteins and stains DNA, provides a reliable, simple assay for measuring viability of cells.
# (§3) The Methyl Tetrazolium, Sulforhodamine B, and Crystal Violet assays were used to assess cell viabilities. The incubation times were 24 hours, 48 hours, and 72 hours. The Nerium oleander extract Anvirzel™ (a hot water extract of oleander obtained from Salud Integral, Honduras) was tested in concentrations ranging from 0.01 ng/mL to 10 ng/mL.
# (§4) Cells were detached by trypsinization (Trypsin-0.25% EDTA, Invitrogen, 25200-072) during the logarithmic phase of culture growth and plated in 96-well plates (18.000 cells/well) (Corning, Costar 359) in a final volume of 200 μl of medium per well. […] The absorbance was measured after 24 hours, 48 hours, and 72 hours of incubation.
# For the Sulforhodamine B assay, 96-well plates were fixed by 10% trichloroacetic acid (Fluka, 91228) and were incubated at 4° C. for 1 hour. Afterwards, plates were rinsed with water and cells were stained with 0.4% Sulforhodamine B (Sigma, 341738), dissolved in 1% acetic acid (Carlo Ebra, 401422) for 15 minutes at room temperature (RT). The unbound stain was washed twice with 1% acetic acid. Finally, 10 mM Tris Buffer pH 10.5 (Sigma, T6791) was added to dissolve the dye.
# (§5) The optical density of each plate was measured on a μQuant spectrophotometer and the data were analyzed with Gen5 software (μQuant Biomolecular Spectrophotometer MQX200 and Gen5™ Microplate Data Collection & Analysis software, BioTek® Instruments. Inc, April 2008). Absorbance was measured at 570 nm for all assays and a second wavelength was measured in order to subtract noise. For the Methyl-Tetrazolium assay this second wavelength was 630 nm and for the Sulforhodamine B and Crystal Violet assays it was 690 nm.
# [2] = test system: LNCaP prostate cancer cell line; test: Crystal Violet viability assay, LNCaP; assay type: cell-based, human; settings: for ABSORBANCE: LNCaP, 0.1 μg/mL cisplatin
# From the text: as §1, §2, §3, §4
# For the Crystal Violet assay, the medium was removed from the 96-well plates, the plates rinsed with PBS (Sigma, P3813) and then the cells were […] by the addition of 10% formalin (MERCK, 1.04003.2500) for 20 minutes at RT. Formalin was removed and 0.25% aqueous crystal violet (Sigma, HT901), dissolved in water, was added for 10 minutes at RT. Unbound Crystal Violet was rinsed by washing with water and finally 33% acetic acid was added to dissolve the dye.
# as §5
smiles,measurement,setting,value
N.N.[Cl][Pt][Cl] [cisplatin],SRB Average,"[1]; MCF-7, Run 2, 24 h, 0.1 μg/ml CDDP",1.754
same,SRB Average,"[1]; MCF-7, Run 2, 24 h, 1 μg/ml CDDP",1.225
same,SRB Average,"[1]; MCF-7, Run 2, 24 h, 10 μg/ml CDDP",1.717
same,SRB Average,"[1]; MCF-7, Run 2, 24 h, 100 μg/ml CDDP",1.056
same,SRB Average,"[1]; MCF-7, Run 2, 48 h, 0.1 μg/ml CDDP",2.037
same,SRB Average,"[1]; MCF-7, Run 2, 48 h, 1 μg/ml CDDP",0.874
same,SRB Average,"[1]; MCF-7, Run 2, 48 h, 10 μg/ml CDDP",0.88
same,SRB Average,"[1]; MCF-7, Run 2, 48 h, 100 μg/ml CDDP",0.985
same,SRB Average,"[1]; MCF-7, Run 2, 72 h, 0.1 μg/ml CDDP",2.289
same,SRB Average,"[1]; MCF-7, Run 2, 72 h, 1 μg/ml CDDP",1.409
same,SRB Average,"[1]; MCF-7, Run 2, 72 h, 10 μg/ml CDDP",1.179
same,SRB Average,"[1]; MCF-7, Run 2, 72 h, 100 μg/ml CDDP",0.897
same,SRB Average,"[1]; MCF-7, Run 3, 24 h, 0.1 μg/ml CDDP",2.843
same,SRB Average,"[1]; MCF-7, Run 3, 24 h, 1 μg/ml CDDP",1.805
same,SRB Average,"[1]; MCF-7, Run 3, 24 h, 10 μg/ml CDDP",2.092
same,SRB Average,"[1]; MCF-7, Run 3, 24 h, 100 μg/ml CDDP",1.077
same,SRB Average,"[1]; MCF-7, Run 3, 48 h, 0.1 μg/ml CDDP",2.371
same,SRB Average,"[1]; MCF-7, Run 3, 48 h, 1 μg/ml CDDP",1.787
same,SRB Average,"[1]; MCF-7, Run 3, 48 h, 10 μg/ml CDDP",1.338
same,SRB Average,"[1]; MCF-7, Run 3, 48 h, 100 μg/ml CDDP",1.673
same,SRB Average,"[1]; MCF-7, Run 3, 72 h, 0.1 μg/ml CDDP",2.522
same,SRB Average,"[1]; MCF-7, Run 3, 72 h, 1 μg/ml CDDP",1.885
same,SRB Average,"[1]; MCF-7, Run 3, 72 h, 10 μg/ml CDDP",1.622
same,SRB Average,"[1]; MCF-7, Run 3, 72 h, 100 μg/ml CDDP",1.181
same,SRB Average,"[1]; MCF-7 Run 1, 24 h, 0.1 μg/ml CDDP",2.066
same,SRB Average,"[1]; MCF-7 Run 1, 24 h, 1 μg/ml CDDP",1.404
same,SRB Average,"[1]; MCF-7 Run 1, 24 h, 10 μg/ml CDDP",1.825
same,SRB Average,"[1]; MCF-7 Run 1, 24 h, 100 μg/ml CDDP",1.579
same,SRB Average,"[1]; MCF-7 Run 1, 48 h, 0.1 μg/ml CDDP",2.67
same,SRB Average,"[1]; MCF-7 Run 1, 48 h, 1 μg/ml CDDP",1.873
same,SRB Average,"[1]; MCF-7 Run 1, 48 h, 10 μg/ml CDDP",1.731
same,SRB Average,"[1]; MCF-7 Run 1, 48 h, 100 μg/ml CDDP",1.452
same,SRB Average,"[1]; MCF-7 Run 1, 72 h, 0.1 μg/ml CDDP",2.779
same,SRB Average,"[1]; MCF-7 Run 1, 72 h, 1 μg/ml CDDP",1.762
same,SRB Average,"[1]; MCF-7 Run 1, 72 h, 10 μg/ml CDDP",1.702
same,SRB Average,"[1]; MCF-7 Run 1, 72 h, 100 μg/ml CDDP",1.024
same,CVE Average,"[2]; LNCaP Run 3, 24 h, 0.1 μg/ml CDDP",0.425
same,CVE Average,"[2]; LNCaP Run 3, 24 h, 1 μg/ml CDDP",0.152
same,CVE Average,"[2]; LNCaP Run 3, 24 h, 10 μg/ml CDDP",0.171
same,CVE Average,"[2]; LNCaP Run 3, 24 h, 100 μg/ml CDDP",0.133
same,CVE Average,"[2]; LNCaP Run 3, 48 h, 0.1 μg/ml CDDP",0.387
same,CVE Average,"[2]; LNCaP Run 3, 48 h, 1 μg/ml CDDP",0.24
same,CVE Average,"[2]; LNCaP Run 3, 48 h, 10 μg/ml CDDP",0.267
same,CVE Average,"[2]; LNCaP Run 3, 48 h, 100 μg/ml CDDP",0.3
same,CVE Average,"[2]; LNCaP Run 3, 72 h, 0.1 μg/ml CDDP",0.619
same,CVE Average,"[2]; LNCaP Run 3, 72 h, 1 μg/ml CDDP",0.312
same,CVE Average,"[2]; LNCaP Run 3, 72 h, 10 μg/ml CDDP",0.303
same,CVE Average,"[2]; LNCaP Run 3, 72 h, 100 μg/ml CDDP",0.289
same,ABSORBANCE,[2]; 48 h,0.408
same,ABSORBANCE,[2]; 72 h,0.448
same,Average CVE 24 h,"[2]; Run 1, 0.1 μg/ml CDDP",0.418
same,Average CVE 48 h,"[2]; Run 1, 0.1 μg/ml CDDP",0.541
same,Average CVE 72 h,"[2]; Run 1, 0.1 μg/ml CDDP",0.684
same,Average CVE 24 h,"[2]; Run 1, 1 μg/ml CDDP",0.327
same,Average CVE 48 h,"[2]; Run 1, 1 μg/ml CDDP",0.252
same,Average CVE 72 h,"[2]; Run 1, 1 μg/ml CDDP",0.558
same,Average CVE 24 h,"[2]; Run 1, 10 μg/ml CDDP",0.289
same,Average CVE 48 h,"[2]; Run 1, 10 μg/ml CDDP",0.467
same,Average CVE 72 h,"[2]; Run 1, 10 μg/ml CDDP",0.423
same,Average CVE 24 h,"[2]; Run 1, 100 μg/ml CDDP",0.359
same,Average CVE 48 h,"[2]; Run 1, 100 μg/ml CDDP",0.306
same,Average CVE 72 h,"[2]; Run 1, 100 μg/ml CDDP",0.398
same,Average CVE 24 h,"[2]; Run 2, 0.1 μg/ml CDDP",0.463
same,Average CVE 48 h,"[2]; Run 2, 0.1 μg/ml CDDP",0.408
same,Average CVE 72 h,"[2]; Run 2, 0.1 μg/ml CDDP",0.448
same,Average CVE 24 h,"[2]; Run 2, 1 μg/ml CDDP",0.227
same,Average CVE 48 h,"[2]; Run 2, 1 μg/ml CDDP",0.29
same,Average CVE 72 h,"[2]; Run 2, 1 μg/ml CDDP",0.522
same,Average CVE 24 h,"[2]; Run 2, 10 μg/ml CDDP",0.278
same,Average CVE 48 h,"[2]; Run 2, 10 μg/ml CDDP",0.207
same,Average CVE 72 h,"[2]; Run 2, 10 μg/ml CDDP",0.299
same,Average CVE 24 h,"[2]; Run 2, 100 μg/ml CDDP",0.276
same,Average CVE 48 h,"[2]; Run 2, 100 μg/ml CDDP",0.237
same,Average CVE 72 h,"[2]; Run 2, 100 μg/ml CDDP",0.214

# From patent US20190343908A1, “Therapeutic Combination for the Treatment of Cancer” (Nerium Biotechnology Inc., priority 2011, published 2019)
